Assay results as given in article PMC10313921, “A living ex vivo platform for functional, personalized brain cancer diagnosis” (Cell Reports Medicine, 2023).

What was measured:
[1] = system: 7 cell lines (MB231Br, LN229, U373WT, U373KO, GBM8, MS21, PDIPG); experiment: Drug screening on OBSCs, summary over the panel of seven tumor lines; type: cell-based, human; details: for response / killing over the 7 cell lines: number of lines responding
Procedure: Tumor cells (0.17 μL, 25,000 cells) were seeded onto OBSCs 2h after slicing, with one tumor seeded in the center of each hemisphere for a total of two tumor foci per OBSC. BSM was changed 24h after slicing. Fluorescence images were taken 0 h, 24 h, and 96 h post-seeding for normalization of tumor size. Bioluminescence readouts were also taken at 0 h, 24 h, and 96 h post seeding for assessment of cell viability. Luciferin was added underneath the culture insert and allowed to incubate for 10 min before bioluminescence measurement on an AMI optical imaging system.
(§1) Tumor cells were seeded onto OBSCs 2h after slicing as described above. One day after tumor seeding, six concentrations of each drug were diluted in the media underneath each culture insert, or XRad was applied using an X-Rad 320 Precision X-ray machine (n = 4 tumor foci per concentration; n ≥ 24 tumor foci per drug per cell line). Three days after treatment, the bioluminescence of live tumor cells was measured using an AMI optical imager (Spectral Instruments) and dose-response curves were generated. Tumor survival was normalized to day one tumor fluorescence and compared to an untreated control group.
Several weighted parameters were factored into an overall drug sensitivity score.
(§2) For DSS parameters 1–6, therapeutic windows were calculated by comparing OBSC toxicity and tumor response at the doses where tumor kill passed through the DSS parameter (Table S1 and S3). For DSS parameter 7, the therapeutic window was calculated by comparing the slopes through the tumor EC50 and the OBSC tox EC50. For DSS parameter 8, the therapeutic window was calculated by comparing the areas under tumor kill and OBSC tox curves. Normalized therapeutic window ratios for DSS parameters 1–8 within each drug-tumor-OBSC interaction were calculated in the following manner: within each window, values ranged from +1 to −1, where values approaching +1 signify increasing tumor kill relative to normal tissue toxicity, and values approaching −1 indicate agents where tumors remained highly viable while toxicity to the normal OBSC tissue was elevated. DSS parameters 9–11 were determined based on the behavior of the tumor in response to the drug, as defined above.
All individually weighed parameters were added together to generate the DSS. Overall DSS from 0 to 100 signify increasing efficacy in tumor kill relative to OBSC toxicity, while scores from 0 to −100 describe scenarios in which tumors thrive more effectively than OBSCs for a given treatment. Dose-response values were calculated via linear interpolation of raw data, not from best-fit curve equations.

[2] = system: MG-I patient tumor tissue (WHO I meningioma); experiment: Drug screening of uncultured patient tumor tissue MG-I on OBSCs; type: cell-based; details: Homo sapiens, dose required to kill 90% of the tumor
Procedure: as §1
(§3) To engraft onto OBSCs, the cryopreserved/thawed or fresh brain tumor tissue was filtered through a 100 μm cell strainer. […] The viability of the patient tissue was measured by an AMI optical imaging system with the addition of 1.5 mg/mL luciferin underneath the culture insert. […]
(§4) For DSS parameters 1–6, therapeutic windows were calculated by comparing OBSC toxicity and tumor response at the doses where tumor kill passed through the DSS parameter (Table S1 and S3). For DSS parameter 7, the therapeutic window was calculated by comparing the slopes through the tumor EC50 and the OBSC tox EC50. For DSS parameter 8, the therapeutic window was calculated by comparing the areas under tumor kill and OBSC tox curves. […]

[3] = system: SE-I patient tumor tissue (WHO I subependymoma); experiment: Drug screening of uncultured patient tumor tissue SE-I on OBSCs; type: cell-based; details: Homo sapiens; for EC90: dose required to kill 90% of the tumor
Procedure: as §1
(§5) To engraft onto OBSCs, the cryopreserved/thawed or fresh brain tumor tissue was filtered through a 100 μm cell strainer. Each 50 mg of tissue was transfected with 1mL mcherry-FLuc Lentivirus at 1.5e7 vg/ml with 1μL polybrene for 4h at 37°C. After incubation, the brain tumor tissue was washed with PBS three times to remove the residual virus and reconstituted in PBS with a final volume of 150 μL. […] The viability of the patient tissue was measured by an AMI optical imaging system with the addition of 1.5 mg/mL luciferin underneath the culture insert. […]
as §2, with “DSS parameters 9–11 were determined based on the behavior of the tumor in response to the drug, as defined above.” left out

[4] = system: MMG-II patient tumor tissue (WHO grade II meningioma, multiple tumors); experiment: Drug screening of uncultured patient tumor tissue MMG-II on OBSCs; type: cell-based; details: Homo sapiens, dose required to kill 90% of the tumor
Procedure: as §1, §5
as §2, with “DSS parameters 9–11 were determined based on the behavior of the tumor in response to the drug, as defined above.” left out

[5] = system: LBM patient tumor tissue (Stage III NSCLC adenocarcinoma); experiment: Drug screening of uncultured patient tumor tissue LBM on OBSCs; type: cell-based; details: Homo sapiens; for EC90: dose required to kill 90% of the tumor
Procedure: as §1, §5
as §2, with “DSS parameters 9–11 were determined based on the behavior of the tumor in response to the drug, as defined above.” left out

[6] = system: ODDG patient tumor tissue (WHO grade III oligodendroglioma); experiment: Drug screening of uncultured patient tumor tissue ODDG on OBSCs; type: cell-based; details: Homo sapiens
Procedure: as §1, §3, §4

[7] = system: GBM-MG patient tumor tissue (GBM w/ WHO I meningioma); experiment: Drug screening of uncultured patient tumor tissue GBM-MG on OBSCs; type: cell-based; details: Homo sapiens, dose required to kill 90% of the tumor
Procedure: as §1, §3, §4

[8] = dose required to kill 50% of the tumor

**Q.** Which results are given for `Nc1ncn([C@@H]2O[C@H](CO)[C@@H](O)[C@H]2O)c(=O)n1` [Azacitidine]?
**A.** IC50 ([1]; Homo sapiens, read-out: IC50 values, range over the cell lines): 200 to 400 µM; response / killing over the 7 cell lines [1]: 7 of 7; EC90 [2]: > 10 µM; EC90 [3]: > 10 µM

**Q.** How did the “response / killing over the 7 cell lines” value [1] turn out when `N.N.O=C([O-])C1(C(=O)[O-])CCC1.[Pt+2]` [Carboplatin] was run?
**A.** The value was “robust response”.

**Q.** How did the “response / killing over the 7 cell lines” value [1] turn out when `COc1cc([C@@H]2c3cc4c(cc3[C@@H](O[C@@H]3O[C@@H]5CO[C@@H](C)O[C@H]5[C@H](O)[C@H]3O)[C@H]3COC(=O)[C@H]23)OCO4)cc(OC)c1O` [Etoposide] was run?
**A.** The value was 6 of 7.

**Q.** For `Nc1ccn([C@@H]2O[C@H](CO)[C@@H](O)C2(F)F)c(=O)n1` [Gemcitabine], which EC90 [4] is on record?
**A.** Its EC90 is greater than 10 µM.

**Q.** How did the “response / killing over the 7 cell lines” value [1] turn out when `O=NN(CCCl)C(=O)NC1CCCCC1` [Lomustine] was run?
**A.** The value was “robust response”.

**Q.** And the EC90 [5]?
**A.** The EC90 was greater than 10 µM.

**Q.** What does the source list for `Cn1nnc2c(C(N)=O)ncn2c1=O` [Temozolomide]?
**A.** EC50 [6, 8]: > 100 µM; EC90 ([6]; dose required to kill 90% of the tumor): > 10 µM; EC90 [7]: > 10 µM; DSS scores, range among tumors [1]: −62 to 96; EC50 [5, 8]: > 100 µM; EC90 [5]: > 10 µM; EC90 [2]: > 10 µM; EC50 [3, 8]: > 100 µM; EC90 [3]: > 10 µM

**Q.** With `CC(=O)Nc1cccc(-n2c(=O)n(C3CC3)c(=O)c3c(Nc4ccc(I)cc4F)n(C)c(=O)c(C)c32)c1` [Trametinib] as the compound, how does the EC90 [4] read?
**A.** The EC90 was greater than 10 µM.

**Q.** Which EC90 [4] does the source give for `CC[C@]1(O)C[C@H]2CN(CCc3c([nH]c4ccccc34)[C@@](C(=O)OC)(c3cc4c(cc3OC)N(C=O)[C@H]3[C@@](O)(C(=O)OC)[C@H](OC(C)=O)[C@]5(CC)C=CCN6CC[C@]43[C@@H]65)C2)C1` [Vincristine] here?
**A.** Its EC90 is greater than 10 µM.
